Measured values as given in ChEMBL document CHEMBL1127553, “Derivatives of a novel cyclopeptolide. 2. Synthesis, activity against multidrug resistance in CHO and KB cells in vitro, and structure-activity relationships” (1994).

Tests used:
KB [1] = experiment: The sensitizing capacity of compound for colchicine treatment of multi drug resistance in KB cell was measured at concentration 1.0(mg/L); assay type: functional, Homo sapiens
CHO [2] = experiment: The sensitizing capacity for colchicine treatment of multi drug resistance(MDR) in CHO cell at concentration 0.1(mg/L).; assay type: functional, Cricetulus griseus
KB [3] = experiment: The sensitizing capacity of compound for colchicine treatment of multi drug resistance in KB cell was measured at concentration 3.0 (mg/L); assay type: functional, Homo sapiens
CHO [4] = experiment: The sensitizing capacity for colchicine treatment of parental (PAR)CHO cells at concentration 1.0 (mg/L); assay type: functional, Cricetulus griseus
CHO [5] = experiment: Sensitization of colchicine treated parental (PAR)CHO cells, measured at concentration 0.1(mg/L); assay type: functional, Cricetulus griseus
CHO [6] = experiment: The sensitizing capacity for colchicine treatment of multi drug resistance (MDR) CHO cell at concentration 1.0(mg/L).; assay type: functional, Cricetulus griseus

SMILES	Activity (KB [1])	Activity (CHO [2])	Activity (KB [3])	Activity (CHO [4])	Activity (CHO [5])	Activity (CHO [6])
CC[C@H](C)[C@H]1C(=O)NCC(=O)N(C)[C@@H](C(C)C)C(=O)N[C@@H](Cc2ccc(OC)cc2)C(=O)O[C@@H](C)C(=O)N2CCCC[C@H]2C(=O)N(C)[C@@H](C(C)C)C(=O)N[C@@H](C(C)C)C(=O)N(C)[C@@H](CC(=O)NC[Si](C)(C)C)C(=O)N(C)[C@@H]([C@@H](C)CC)C(=O)N1C	1.3	81	123	11	7.4	336
CC[C@H](C)[C@H]1C(=O)NCC(=O)N(C)[C@@H](C(C)C)C(=O)N[C@@H](Cc2ccc(OC)cc2)C(=O)O[C@H](C)C(=O)N2CCCC[C@H]2C(=O)N(C)[C@@H](C(C)C)C(=O)N[C@@H](C(C)C)C(=O)N(C)[C@@H](CC(=O)OC)C(=O)N(C)[C@@H]([C@@H](C)CC)C(=O)N1C	–	1.9	–	8.4	6.4	84
CC[C@H](C)[C@H]1C(=O)NCC(=O)N(C)[C@@H](C(C)C)C(=O)N[C@@H](Cc2ccc(OC)cc2)C(=O)O[C@H](C)C(=O)N2CCCC[C@H]2C(=O)N(C)[C@@H](C(C)C)C(=O)N[C@@H](C(C)C)C(=O)N(C)[C@@H](CC(=O)OC2C3CC4CC(C3)CC2C4)C(=O)N(C)[C@@H]([C@@H](C)CC)C(=O)N1C (some centres undefined)	–	1.1	–	6.1	3.4	29
CC[C@@H](C)[C@H]1C(=O)NCC(=O)N(C)[C@@H](C(C)C)C(=O)N[C@@H](Cc2ccc(OC)cc2)C(=O)O[C@H](C)C(=O)N2CCCC[C@H]2C(=O)N(C)[C@@H](C(C)C)C(=O)N[C@@H](C(C)C)C(=O)N(C)[C@H](CC(=O)N2CCCCC2)C(=O)N(C)[C@@H]([C@@H](C)CC)C(=O)N1C	–	3.2	–	10	7.1	137
CC[C@H](C)[C@H]1C(=O)NCC(=O)N(C)[C@@H](C(C)C)C(=O)N[C@@H](Cc2ccc(OC)cc2)C(=O)O[C@H](C)C(=O)N2CCCC[C@H]2C(=O)N(C)[C@@H](C(C)C)C(=O)N[C@@H](C(C)C)C(=O)N(C)[C@@H](CC(=O)NC[Si](C)(C)C)C(=O)N(C)[C@@H]([C@@H](C)CC)C(=O)N1C	–	3.3	–	11	6.7	163
CC[C@H](C)[C@H]1C(=O)NCC(=O)N(C)[C@@H](C(C)C)C(=O)N[C@@H](Cc2ccc(OC)cc2)C(=O)O[C@H](C)C(=O)N2CCCC[C@H]2C(=O)N(C)[C@@H](C(C)C)C(=O)N[C@@H](C(C)C)C(=O)N(C)[C@@H](CC(=O)OCC23CC4CC(CC(C4)C2)C3)C(=O)N(C)[C@@H]([C@@H](C)CC)C(=O)N1C	–	1	–	8.5	5.9	6.7
CC[C@H](C)[C@H]1C(=O)NCC(=O)N(C)[C@@H](C(C)C)C(=O)N[C@@H](Cc2ccc(O)cc2)C(=O)O[C@H](C)C(=O)N2CCCC[C@H]2C(=O)N(C)[C@@H](C(C)C)C(=O)N[C@@H](C(C)C)C(=O)N(C)[C@@H](CC(=O)OC(C)(C)C)C(=O)N(C)[C@@H]([C@@H](C)CC)C(=O)N1C	–	2.5	–	14	6.5	172
CC[C@H](C)[C@H]1C(=O)NCC(=O)N(C)[C@@H](C(C)C)C(=O)N[C@@H](CC(=O)OC)C(=O)O[C@H](C)C(=O)N2CCCC[C@H]2C(=O)N(C)[C@@H](C(C)C)C(=O)N[C@@H](C(C)C)C(=O)N(C)[C@@H](CC(=O)OC)C(=O)N(C)[C@@H]([C@@H](C)CC)C(=O)N1C	–	1.1	–	5.6	1.9	3.5
